Reference: patent US20250376711A1, “COMPOUND-DIAGNOSTIC MARKER FOR UTERINE BODY CANCER, METHOD FOR DETECTING ENZYMATIC ACTIVITY, METHOD FOR DIAGNOSIS OF UTERINE BODY CANCER, KIT COMPRISING THE COMPOUND, USES OF THE COMPOUND AND METHOD FOR THE TREATMENT OF UTERINE BODY CANCER” (URTESTE S.A., priority 2022, published 2025)
Where “and” joins values, the source holds several entries; their conditions need not be identical. Equal values may be shown once. Starred links: 1 amine or outer side, 2 acyl side, 3 side chain; linkers in the order of their positions; H or OH if unused. Non-standard residues stand in square brackets, D forms with d. No end group written: not given here. Benzoyl(5-NH,2-NO2) = O=C(c1cc(N[*:1])ccc1[N+](=O)[O-])[*:2]; 2Abz = Nc1ccccc1C(=O)O

Tests used:
Assay type in all cases: biochemical, human
[1] = test system: enzymatic activity in urine from patients with liver cancer; assay: Selectivity of the cleavage: urine, liver cancer; details: samples from patients with liver cancer, mixture of 20 samples
Text: (§1) Arabic numerals indicate the numbers of given cancer types. The samples tested for each type of cancer were derived from 20 different patients for each of the tested cancers. The results are mean values for given cancer types.
(§2) The activity of the novel compounds according to the invention was studied in a group of 20 subjects diagnosed with uterine body cancer using the representative compound according to the invention. […] The remaining compounds according to the invention are characterized by the analogous mechanism of action. For this purpose, the representative compound according to the invention, ABZ^1-Pro^2-Arg^3-Thr^4-Ile^5-ANB^6-NH2, was dissolved in dimethyl sulfoxide (at a concentration of 0.5 mg/mL) and then 50 μL of the solution was mixed with 120 μL of a buffer (200 mM Tris-HCl, pH 8.0) and 80 μL of urine from a subject suffering from uterine body cancer. The measurement was performed on a 96-well plate designed for measuring absorbance and each sample was analysed in triplicate at the temperature of 37° C. The duration of the measurement was 60 minutes. During the measurement, the wavelength characteristic for the chromophore (ANB-NH2) being released was monitored at the wavelength 405 nm (range 380-430 nm).
(§3) Furthermore, the dependence of the cleavage selectivity of the substrate, i.e. the compound according to the invention, on the cancer being examined, was studied. […]

[2] = test system: enzymatic activity in urine from patients with stomach cancer; assay: Selectivity of the cleavage: urine, stomach cancer; details: samples from patients with stomach cancer, mixture of 20 samples
Text: as §1, §2, §3

[3] = test system: enzymatic activity in urine from patients with lung cancer; assay: Selectivity of the cleavage: urine, lung cancer; details: samples from patients with lung cancer, mixture of 20 samples
Text: as §1, §2, §3

[4] = test system: enzymatic activity in urine from patients with kidney cancer; assay: Selectivity of the cleavage: urine, kidney cancer; details: samples from patients with kidney cancer, mixture of 20 samples
Text: as §1, §2, §3

[5] = test system: enzymatic activity in samples from patients with bladder cancer; assay: Selectivity of the cleavage: urine, bladder cancer; details: mixture of 20 samples
Text: as §1, §2, §3

[6] = test system: enzymatic activity in urine from patients with ovary cancer; assay: Selectivity of the cleavage: urine, ovary cancer; details: samples from patients with ovary cancer, mixture of 20 samples
Text: as §1, §2, §3

[7] = test system: enzymatic activity in urine from patients with prostate cancer; assay: Selectivity of the cleavage: urine, prostate cancer; details: samples from patients with prostate cancer, mixture of 20 samples
Text: as §1, §2, §3

[8] = test system: enzymatic (proteolytic) activity in urine from healthy subjects; assay: Hydrolysis of the chromogenic substrate in urine from healthy subjects (absorbance at 405 nm); details: for Results of absorbance analysis (rate of hydrolysis of the substrate): 405 nm, 37° C., 60 minutes, Tris-HCl pH 8.0, triplicate
[9] = test system: enzyme(s) in the studied material (urine); assay: Dependence of the hydrolysis level of the substrate on pH; details: FIG. 4
Method: Furthermore, measurements concerning the dependence of the proteolytic activity of the representative compound according to the invention on the reaction pH were performed.

[10] = test system: enzymatic activity in urine from patients with pancreas cancer; assay: Selectivity of the cleavage: urine, pancreas cancer; details: samples from patients with pancreas cancer, mixture of 20 samples
Text: as §1, §2, §3

[11] = test system: enzymatic activity in urine from a person diagnosed with uterine body cancer; assay: RP HPLC analysis of substrate cleavage in urine from a person with uterine body cancer; details: randomly selected urine from a person diagnosed with uterine body cancer
[12] = test system: enzymatic (proteolytic) activity in urine from subjects diagnosed with uterine body cancer; assay: Hydrolysis of the chromogenic substrate in urine from subjects with uterine body cancer (absorbance at 405 nm); set-up: Results of absorbance analysis (rate of hydrolysis of the substrate): unit not given here; details: for Results of absorbance analysis (rate of hydrolysis of the substrate): 405 nm, 37° C., 60 minutes, Tris-HCl pH 8.0, triplicate
Method: as §2
The observed magnitude of increase in absorbance in time is different for each of the examined samples. […] Such a result may be due to the difference in the activity as well as the amount of enzymes responsible for the enzymatic cleavage (proteolysis). […] The result indicates the […] of proteolytic enzymes specific/characteristic of uterine body cancer.

ABZ-Pro-Arg-Thr-Ile-ANB-NH2 ([2Abz]PRTI-{Benzoyl(5-NH,2-NO2)-NH2})
cleavage of the substrate / increase in absorbance [1]: is not subject to cleavage | cleavage of the substrate / increase in absorbance [2]: is not subject to cleavage | cleavage of the substrate / increase in absorbance [3]: is not subject to cleavage | cleavage of the substrate / increase in absorbance [4]: is not subject to cleavage | cleavage of the substrate / increase in absorbance [5]: is not subject to cleavage | cleavage of the substrate / increase in absorbance [6]: is not subject to cleavage | cleavage of the substrate / increase in absorbance [7]: is not subject to cleavage | increase in absorbance within the diagnostic range ([8]; 20 urine samples from healthy subjects): no increase in absorbance | Results of absorbance analysis (rate of hydrolysis of the substrate) ([8]; urine sample 21, healthy subject): 0.000000 | Results of absorbance analysis (rate of hydrolysis of the substrate) ([8]; urine sample 22, healthy subject): 0.000000 | Results of absorbance analysis (rate of hydrolysis of the substrate) ([8]; urine sample 23, healthy subject): 0.000000 | Results of absorbance analysis (rate of hydrolysis of the substrate) ([8]; urine sample 24, healthy subject): 0.000000 | Results of absorbance analysis (rate of hydrolysis of the substrate) ([8]; urine sample 25, healthy subject): 0.000000 | Results of absorbance analysis (rate of hydrolysis of the substrate) ([8]; urine sample 26, healthy subject): 0.000000 | Results of absorbance analysis (rate of hydrolysis of the substrate) ([8]; urine sample 27, healthy subject): 0.000000 | Results of absorbance analysis (rate of hydrolysis of the substrate) ([8]; urine sample 28, healthy subject): 0.000000 | Results of absorbance analysis (rate of hydrolysis of the substrate) ([8]; urine sample 29, healthy subject): 0.000000 | Results of absorbance analysis (rate of hydrolysis of the substrate) ([8]; urine sample 30, healthy subject): 0.000000 | Results of absorbance analysis (rate of hydrolysis of the substrate) ([8]; urine sample 31, healthy subject): 0.000000 | Results of absorbance analysis (rate of hydrolysis of the substrate) ([8]; urine sample 32, healthy subject): 0.000000 | Results of absorbance analysis (rate of hydrolysis of the substrate) ([8]; urine sample 33, healthy subject): 0.000000 | Results of absorbance analysis (rate of hydrolysis of the substrate) ([8]; urine sample 34, healthy subject): 0.000000 | Results of absorbance analysis (rate of hydrolysis of the substrate) ([8]; urine sample 35, healthy subject): 0.000000 | Results of absorbance analysis (rate of hydrolysis of the substrate) ([8]; urine sample 36, healthy subject): 0.000000 | Results of absorbance analysis (rate of hydrolysis of the substrate) ([8]; urine sample 37, healthy subject): 0.000000 | Results of absorbance analysis (rate of hydrolysis of the substrate) ([8]; urine sample 38, healthy subject): 0.000000 | Results of absorbance analysis (rate of hydrolysis of the substrate) ([8]; urine sample 39, healthy subject): 0.000000 | Results of absorbance analysis (rate of hydrolysis of the substrate) ([8]; urine sample 40, healthy subject): 0.000000 | dependence of the hydrolysis of the substrate on the reaction pH [9]: maximum activity at alkaline pH | cleavage of the substrate / increase in absorbance [10]: is not subject to cleavage | cleavage products of the substrate (RP HPLC) [11]: cleaves into the peptide fragment ABZ-Pro-Arg-Thr-Ile-OH and the chromophore group of the compound (ANB-NH2) | colour intensity of the solution (absorbance) over time ([12]; all urine samples from persons diagnosed with uterine body cancer (T1-T20)): increased with time | Results of absorbance analysis (rate of hydrolysis of the substrate) ([12]; urine sample T1, uterine body cancer): 0.0066 and 0.006 and 0.0065 | Results of absorbance analysis (rate of hydrolysis of the substrate) ([12]; urine sample T2, uterine body cancer): 0.052 and 0.042 and 0.051 | Results of absorbance analysis (rate of hydrolysis of the substrate) ([12]; urine sample T3, uterine body cancer): 0.0087 and 0.0088 and 0.0086 | Results of absorbance analysis (rate of hydrolysis of the substrate) ([12]; urine sample T4, uterine body cancer): 0.0069 and 0.0051 and 0.0067 | Results of absorbance analysis (rate of hydrolysis of the substrate) ([12]; urine sample T5, uterine body cancer): 0.044 and 0.038 and 0.042 | Results of absorbance analysis (rate of hydrolysis of the substrate) ([12]; urine sample T6, uterine body cancer): 0.037 and 0.022 and 0.028 | Results of absorbance analysis (rate of hydrolysis of the substrate) ([12]; urine sample T8, uterine body cancer): 0.014 and 0.022 and 0.015 | Results of absorbance analysis (rate of hydrolysis of the substrate) ([12]; urine sample T9, uterine body cancer): 0.0088 and 0.0101 and 0.0092 | Results of absorbance analysis (rate of hydrolysis of the substrate) ([12]; urine sample T10, uterine body cancer): 0.009 and 0.0093 and 0.0085 | Results of absorbance analysis (rate of hydrolysis of the substrate) ([12]; urine sample T11, uterine body cancer): 0.0123 and 0.0112 and 0.0145 | Results of absorbance analysis (rate of hydrolysis of the substrate) ([12]; urine sample T12, uterine body cancer): 0.0216 and 0.021 and 0.0199 | Results of absorbance analysis (rate of hydrolysis of the substrate) ([12]; urine sample T13, uterine body cancer): 0.0045 and 0.0052 and 0.0048 | Results of absorbance analysis (rate of hydrolysis of the substrate) ([12]; urine sample T14, uterine body cancer): 0.005 and 0.0061 and 0.0058 | Results of absorbance analysis (rate of hydrolysis of the substrate) ([12]; urine sample T15, uterine body cancer): 0.0017 and 0.0015 and 0.0021 | Results of absorbance analysis (rate of hydrolysis of the substrate) ([12]; urine sample T16, uterine body cancer): 0.0079 and 0.0084 and 0.0072 | Results of absorbance analysis (rate of hydrolysis of the substrate) ([12]; urine sample T18, uterine body cancer): 0.0073 and 0.0068 and 0.0075 | Results of absorbance analysis (rate of hydrolysis of the substrate) ([12]; urine sample T19, uterine body cancer): 0.055 and 0.051 and 0.048 | Results of absorbance analysis (rate of hydrolysis of the substrate) ([12]; urine sample T20, uterine body cancer): 0.0077 and 0.0075 and 0.0081
